Consider 5 molecules from US20230044690A1, “PROGESTERONE FORMULATION TO TRIGGER OVULATION AND PROVIDE LUTEAL PHASE SUPPORT” (AUGUSTA UNIVERSITY RESEARCH INSTITUTE, INC., priority 2019, published 2023).

The conditions of data set [1]: circulating progestins, compared by activity with 0.5 ng preovulatory progesterone; cited from earlier work.
Data set [2] relates to gonadotropins surge. The settings on record: cited from earlier work.
For data set [3], the system named is ovulation. Format: in vivo, human. Here is the method:
For the natural cycle, they were monitored with ultrasound at the base line on day 2, and then day 12 and 13. At day 13 of the cycle, their leading follicle had reached a size of 17 mm (FIG. 4B), P4 was 1.5 ng/ml and LH was 5 IU/L. They were given an intramuscular injection of 5 mg of progesterone. The protocol is outlined in FIG. 4A
Failure of the follicle to rupture was attributed to its size (17 mm) at the time of the trigger.

The test system of data set [4] is ovulation. Format: in vivo, human. To be noted: case 3. On the procedure: A person, G2 P1, SAB1, height 152 cm, weight 164 lb was referred for infertility treatment following 6-month inability to conceive naturally. Patient's medical history was significant for PCOS and subclinical hypothyroidism, for which they were taking levothyroxine […]. Patient had menarche at 12, average period duration of 45 days, average menses duration of 6 days. Patient's fallopian tubes were both patent per HSG, with a normal uterine cavity (FIG. 6E). Their AMH was 9.3 ng/ml.
The medication regiment, at the beginning of the third attempt was the same as in the previous attempt when the patient became pregnant with 5 mg of Letrozole in addition to 100 mg CC for 5 days starting on the 3rd day of their period. […] Before the trigger […] P4 and LH were 0.62 ng/ml and 4.26 IU/L respectively (Table 3) and ultrasound identified three follicles 22, 22 and 19 mm (FIG. 6C-6D).
Seven days after the trigger shot, P4 level was 38.39 ng/ml at which time the patient was started on 200 mg progesterone vaginal suppository daily.

Data set [5] deals with gonadotropins surge. Briefly: Reported progesterone dose and pharmacodynamics for induction of a gonadotropins surge (Leyendecker et al, 1972). It counts as in vivo, human. The settings on record: about 5 mg of progesterone in sesame oil, intramuscular injection; estimate from Leyendecker 1972. On the procedure: The lowest dose of progesterone reported for induction of a gonadotropins surge is […] injected intramuscularly (Leyendecker, et al, 1972).
Consequently, the target cumulative progesterone level in circulation was 1 ng/ml. Based on pharmacodynamics of progesterone (Leyendecker, et al, 1972), it was estimated that in order to achieve circulating progesterone level at its peak (120 minutes post injection) 1 ng/ml, an additional […] was needed to add to the patient's own 0.63 ng/ml. This would be achieved with about 5 mg of progesterone in sesame oil for intramuscular injection. […] Furthermore, progesterone continued to rise to the expected level several days later. The patient's P4 level on day 5 post trigger was excellent and additional supplementation with progesterone thereafter was given only for an abundance of caution.

Where two headings read alike, the source gives them in different places.

Consider `CC(=O)O[C@]1(C(C)=O)CC[C@H]2[C@@H]3C[C@H](C)C4=CC(=O)CC[C@]4(C)[C@H]3CC[C@@]21C` [Medroxyprogesterone acetate], for which the Consensus value in data set [1] is reported as 5 mg.

Consider `C#C[C@]1(O)CC[C@H]2[C@@H]3CCC4=CC(=O)CC[C@@H]4[C@H]3CC[C@@]21C` [Norethindrone], for which the Consensus value in data set [1] is 0.35 mg.

Regarding `CC(=O)[C@H]1CC[C@H]2[C@@H]3CCC4=CC(=O)CC[C@]4(C)[C@H]3CC[C@]12C` [progesterone], the “Lowest dose reported for induction of a gonadotropins surge” value in the data set on gonadotropins surge [2] (injected intramuscularly) is 10 mg. Moreover, the “Time of peak circulating progesterone level post injection” value with gonadotropins surge [2] (intramuscular injection) was 120 min. In addition, the “Circulating hormone level LH” value in the data set with ovulation [3] (0 hrs after trigger injection, 5 mg progesterone i.m., case 1) is given as 10.9; with ovulation [3] (10 hrs after trigger injection, 5 mg progesterone i.m., case 1) it was 28.4; in the data set with ovulation [3] (49 hrs after trigger injection, 5 mg progesterone i.m., case 1), 11.36. Also, the Follicle rupture result in the data set with ovulation [3] (17 mm leading follicle at trigger, 5 mg progesterone i.m., case 1) is “failed to rupture”. In the data set with ovulation [3] (after 5 mg progesterone i.m., case 1), the “Time until LH was at the ovulation level” value was not above 12 h. The LH in the data set on ovulation [3] (day 13 of the cycle, before the progesterone injection, case 1) was 5 IU/L; in the data set with ovulation [4] (17 hours 30 minutes after trigger shot, 5 mg progesterone in oil), 37.01 IU/L; with ovulation [4] (First follicular ultrasound, before trigger shot) it was 9.47 IU/L; in the data set with ovulation [4] (Stimulation day 10, before trigger shot) it was 5.09 IU/L; in the data set with ovulation [4] (day of progesterone trigger shot (stimulation day 12), before the trigger), 4.26 IU/L. The P4 with ovulation [3] (female, human, in vivo) is 1.5 ng/mL. For the same molecule, the “Ultrasound observation: uterine lining” value with ovulation [4] (day 3 after trigger shot) is given as “lining - 15.2 mm”; in the data set on ovulation [4] (day of progesterone trigger shot, before the trigger), 10C-10D) Uterine lining 8.8 mm. Also, the P4 level entry in the data set with ovulation [4] (day 5 post trigger) is recorded as “excellent”. Also, the Pregnancy outcome in the data set on ovulation [4] (period 2 weeks later, 200 mg progesterone vaginal suppository daily from day 7) was “no pregnancy occurred”. Also, the “Estimated additional circulating progesterone level at its peak” value in the data set on gonadotropins surge [5] was 0.35 ng/mL.

Turning to `C#CC1(O)CC[C@H]2[C@@H]3CCC4=CC(=O)CC[C@@H]4[C@H]3CC[C@@]21CC` (mixture of isomers) [D/L norgestrel], in data set [1], the Consensus value is 0.075 mg.

As for `CC(=O)[C@H]1CC[C@H]2[C@@H]3C=CC4=CC(=O)CC[C@@]4(C)[C@@H]3CC[C@]12C` [Dydrogesterone], the Consensus value in data set [1] was 10 mg.
